Literature values as cited in patent US6562605B1, “Extraction of water soluble biomaterials from fluids using a carbon dioxide/surfactant mixture” (Genencor International, Inc., priority 1995, dated 2003).
Read-outs that look alike come from different tables or passages of the source.

[1] = to 388 bar, 50° C. printed at first prior art line

Compound	Solubility in carbon dioxide [1]	Solubility in carbon dioxide (at 377 bar)	also measured
CCCCCCS(=O)(=O)[O-].[Na+] [Alkyl sulfonate (C6, sodium salt, Fluka)]	insoluble to 388 bar (50° C.)		
CCCCCCCCS(=O)(=O)[O-].[Na+] [Alkyl sulfonate (Niacet, NAS 08)]			Solubility in carbon dioxide (to 585 bar): insoluble to 585 bar
CCCCCCCCCCCCCC[N+](C)(C)C.[Br-] [Tetradecyl trimethyl ammonium bromide]	insoluble to 388 bar		
Sorbitan monostearate [Sorbitan monostearate (Fluka, Span 60)]		slightly soluble at 377 bar	
Sorbitan trioleate [Sorbitan trioleate (Fluka, Span 80)]		slightly soluble at 377 bar	
